Data reported in patent publication US9504676B2, “Molecules inhibiting a metabolic pathway involving the Syk protein tyrosine kinase and method for identifying said molecules” (CENTRE NATIONAL DE LA RECHERCHE SCIENTIFIQUE, priority 2008, dated 2016).
Converted amounts (≈) assume the structure as drawn.

How the values were obtained:
[1] = molecular target: T1, murine Syk tyrosine kinase protein (GST:Syk 6-242) (Mus musculus, UniProt P48025); test: ADA method: displacement of the binding of scFv G4G11 with Syk (ELISA); conditions: small molecules at 10 μM, scFv G4G11 100 nM; read-out: In vit. inhib.: mean inhibition % of the binding of scFv G4G11 with Syk in the ADA method
T1 construct: made in house
From the text: The term “percentage of inhibition” of the binding of an antibody or antibody fragment with Syk protein, particularly refers to the ratio […], where A consists of the intensity of a signal proportional to the quantity of an antibody or antibody fragment bound with Syk protein in the absence of a molecule according to the invention and B the intensity of the same signal in the presence of a molecule according to the invention under the same conditions. […] This test may be performed for example according to the protocol described in example 3-2) hereinafter.
The inventors developed the ADA (Antigen Displacement Assay) method to identify small molecules capable of displacing the association with scFv G4G11 with Syk. […] To understand the mode of action of C-13, the inventors firstly identified the binding site of G4G11 using the SPOT method^16. An epitope located on the N-terminal SH2 domain of Syk, comprising amino acids 65-74 and 100% preserved in mouse, rat and human sequences, was identified.
The ADA method was then applied to each of these […] molecules to measure the ability thereof to inhibit the binding of scFv G4G11 with Syk.
(§1) • 1) Chemical products and antibodies. A chemical bank of 3000 molecules (a varied subset) was acquired from ChemBridge, Inc. (San Diego, Calif.). Stocks of solutions of small molecules were prepared at a rate of 10 mM in DMSO (dimethylsulphoxide), except for C-13 (methyl 2-{5-[(3-benzyl-4-oxo-2-thioxo-1,3-thiazolidin-5-ylidene)methyl]-2-furyl}benzoate, ChemBridge ID No. 6197026) prepared in DMF (dimethylformamide). Unless specified otherwise, all the reagents were supplied by Sigma. Dinitrophenyl (DNP) hapten was acquired from Calbiochem. Sepharose GammaBind G and all the secondary antibodies were supplied by GE Health Amersham Biosciences. The anti-Syk, anti-Lyn, anti-Btk, anti-PLC-γ1, anti-PLC-γ2, anti-LAT, anti-SLP-76, anti-p38, anti-JNK, anti-Vav, anti-Akt1 and 9E10 antibodies conjugated with HRP were acquired from Santa Cruz Biotechnology. The anti-phospho-p44/42 MAP Kinase, anti-p44/42 MAP Kinase, anti-phospho-p38, anti-phospho-JNK, anti-phospho-Akt1 antibodies were acquired from Cell Signaling. The anti-phospho-LAT and anti-phospho-PLC-γ1 antibodies were supplied by Biosource and the anti-phospho-SLP-76 antibodies by BD Pharmingen. The 4G10 anti-phosphotyrosine monoclonal antibody was acquired from Upstate Biotechnology. • 2) ADA method: ELISA type high-speed molecule screening test, based on antibody displacement (WO 2005106481). The recombinant fusion protein GST:Syk 6-242^8 comprising the residues 6 to 242 of murine Syk tyrosine kinase protein illustrated in FIG. 8B (SEQ ID No. 4) was immobilised on an ELISA plate at a final concentration of 10 μg ml^−1. For the screening of the chemical molecule bank, the small molecules, diluted in PBS at a final concentration of 10 μM were added to the wells for one hour at ambient temperature, before adding the fragment scFv G4G11 at a final concentration of 100 nM for an additional hour. The binding of G4G11 with Syk was assessed by adding the 9E10 monoclonal antibody conjugated with HRP detecting the amino acid sequence EQKLISEEDLN of human c-myc protein located at the C-terminal end of the scFv fragment. To generate Syk mutants, targeted mutagenesis was used on GST:Syk 6-242 protein and the binding of G4G11 with the mutants was assessed in the presence of 5 μM of C-13. • 3) Cells, culture conditions and functional tests. Anti-DNP 2682-I mouse monoclonal antibody was used as the culture supernatant of hybridomas containing 1 μg/ml of IgE. Femoral bone marrow cells were sampled and cultured in Opti-MEM medium (Gibco) supplemented with 10% foetal calf serum and 4% X63 transfectant supernatant secreting murine IL-3. RBL-2H3 (ATCC) leukaemic rat basophil cells were maintained in a single-layer culture in RPMI 1640 medium supplemented with 10% foetal calf serum (Gibco). […]

RBL-2H3 cells = test: cells; format: cell-based, rat; conditions: Rattus norvegicus; RBL-2H3 cells; read-out: Degran. IC50: concentration inhibiting mast cell degranulation by 50%
Method: These 87 molecules were also tested in vitro to assess the ability thereof to inhibit RBL-2H3 cell degranulation (see table 1).
as §1, with “(Gibco). Measurements of β-hexosaminidase released by the RBL-2H3 cells were performed as described previously^7, except that, after 12-16 hours of incubation with anti-DNP IgE (0.5 μg/ml), the cells were incubated for 90 min at 37° C. in RPMI medium supplemented with the specified concentrations of C-13 or DMF (0.25%). The cells were stimulated for 45 min with DNP-BSA (50 ng ml^−1) or ionomycin (1.5 μM). The BMMC cells were incubated for one hour at 37° C. with anti-DNP IgE (100 ng/ml). They were then incubated with C-13 (3 μM) or DMF (0.3%) for 3 hours at 37° C., and stimulated with varied concentrations of DNP-BSA. The level of β-hexosaminidase released was measured 10 min later and the TNF-α titration was performed by means of a cytotoxicity test on L929 cells as described previously^10, 3 hours after stimulation. The results illustrated in FIG. 3 are representative of three independent experiments. • 4) Immunoprecipitations, in vitro kinase assays and immunodetection.” for “(Gibco).”

Row | inhibition at 10 µM [1] | IC50 (RBL-2H3 cells) | SMILES
1 | 48.5% | > 10 µg/mL | COc1ccc(OC)c(C2C(C(=O)c3ccc(F)cc3)=C(O)C(=O)N2CCCN2CCOCC2)c1 (stereo not drawn) [Molecule 43, 5-(2,5-dimethoxyphenyl)-4-(4-fluorobenzoyl)-3-hydroxy-1-[3-(4-morpholinyl)propyl]-1,5-dihydro-2H-pyrrol-2-one]
2 | 48.5% | > 10 µg/mL | O=C(C1=C(O)C(=O)N(CCCN2CCOCC2)C1c1ccccc1F)c1ccc(Cl)cc1 (stereo not drawn) [Molecule 44, 4-(4-chlorobenzoyl)-5-(2-fluorophenyl)-3-hydroxy-1-[3-(4-morpholinyl)propyl]-1,5-dihydro-2H-pyrrol-2-one]
3 | 48.5% | > 10 µg/mL | CC(C)c1ccc(C2C(C(=O)c3ccc(F)cc3)=C(O)C(=O)N2CCN2CCOCC2)cc1 (stereo not drawn) [Molecule 45, 4-(4-fluorobenzoyl)-3-hydroxy-5-(4-isopropylphenyl)-1-[2-(4-morpholinyl)ethyl]-1,5-dihydro-2H-pyrrol-2-one]
4 | 47.5% | > 10 µg/mL | Cn1c(SCC(=O)NCC2CCCO2)nnc1-c1ccc(NC(=O)c2ccccc2Cl)cc1 (stereo not drawn) [Molecule 47]
5 | 47% | > 10 µg/mL | Cc1ccc(S(=O)(=O)N(CC(=O)N2CCN(Cc3ccccc3)CC2)c2ccc(C)c(C)c2)cc1 [Molecule 48, N-[2-(4-benzyl-1-piperazinyl)-2-oxoethyl]-N-(3,4-dimethylphenyl)-4-methylbenzenesulphonamide]
6 | 46.5% | > 10 µg/mL | CN(C)CCCN1C(=O)C(O)=C(C(=O)c2ccc(S(=O)(=O)N(C)C)cc2)C1c1ccc(Cl)c(Cl)c1 (stereo not drawn) [Molecule 50, 4-({2-(3,4-dichlorophenyl)-1-[3-(dimethylamino)propyl]-4-hydroxy-5-oxo-2,5-dihydro-1H-pyrrol-3-yl}carbonyl)-N,N-dimethylbenzenesulphonamide]
7 | 46% | > 10 µg/mL | CCN(CC)CCCN1C(=O)C(O)=C(C(=O)c2ccc3c(c2)OCO3)C1c1cccnc1 (stereo not drawn) [Molecule 51, 4-(1,3-benzodioxol-5-ylcarbonyl)-1-[3-(diethylamino)propyl]-3-hydroxy-5-(3-pyridinyl)-1,5-dihydro-2H-pyrrol-2-one]
8 | 46% | > 10 µg/mL | COc1cc(C2C(C(=O)c3ccc(C)o3)=C(O)C(=O)N2CCN(C)C)cc(OC)c1OC (stereo not drawn) [Molecule 52, 1-[2-(dimethylamino)ethyl]-3-hydroxy-4-(5-methyl-2-furoyl)-5-(3,4,5-trimethoxyphenyl)-1,5-dihydro-2H-pyrrol-2-one]
9 | 45.5% | > 10 µg/mL | COc1cccc(C2C(C(=O)c3ccc(C)o3)=C(O)C(=O)N2CCN2CCOCC2)c1 (stereo not drawn) [Molecule 53, 3-hydroxy-5-(3-methoxyphenyl)-4-(5-methyl-2-furoyl)-1-[2-(4-morpholinyl)ethyl]-1,5-dihydro-2H-pyrrol-2-one]
10 | 42.5% | ~5 µg/mL (≈ 9.7 µM) | CCOC(=O)C1=C(c2ccccc2)NC(SCC(=O)Nc2cccc(OC)c2)=C(C#N)C1c1ccco1 (stereo not drawn) [Molecule 55, ethyl 5-cyano-4-(2-furyl)-6-({2-[(3-methoxyphenyl)amino]-2-oxoethyl}thio)-2-phenyl-1,4-dihydro-3-pyridine carboxylate]
11 | 42% | ~10 µg/mL (≈ 20.2 µM) | COc1cccc(C2C(C(=O)c3cc(C)ccc3C)=C(O)C(=O)N2CCCN2CCOCC2)c1OC (stereo not drawn) [Molecule 56, 5-(2,3-dimethoxyphenyl)-4-(2,5-dimethylbenzoyl)-3-hydroxy-1-[3-(4-morpholinyl)propyl]-1,5-dihydro-2H-pyrrol-2-one]
12 | 42% | > 10 µg/mL | N#CC1=C(N)Oc2[nH]nc(-c3ccccc3)c2C1c1cccc(OC(=O)c2ccco2)c1 (stereo not drawn) [Molecule 57, 3-(6-amino-5-cyano-3-phenyl-1,4-dihydropyrano[2,3-c]pyrazol-4-yl)phenyl 2-furoate]
13 | 40% | ~10 µg/mL (≈ 22.8 µM) | Cc1cc(C)c(OCC(=O)N2CCN(C(=O)COc3c(C)cc(C)cc3C)CC2)c(C)c1 [Molecule 58, 1,4-bis [(mesityloxy)acetyl] piperazine]
14 | 40% | > 10 µg/mL | CCOC(=O)c1c(-c2ccccc2)oc2ccc(OC(C(=O)O)c3ccccc3)cc12 (stereo not drawn) [Molecule 60, {[3-(ethoxy carbonyl)-2-phenyl-1-benzofuran-5-yl]oxy} (phenyl) acetic acid]
15 | 38.5% | > 10 µg/mL | O=C1c2ccc(Oc3ccc4c(c3)C(=O)N(CC3CCCO3)C4=O)cc2C(=O)N1CC1CCCO1 (stereo not drawn) [Molecule 62, 5,5′-oxybis [2-(tetrahydro-2-furanyl methyl)-1H-isoindole-1,3(2H)-dione]]
